Assay: Measured osmolality of ioforminol injection solution, including on dilution and after autoclaving
Format: physicochemical
Protocol: Isotonicity—A solution is isotonic with human blood plasma if no net water migration takes place over the blood cell membranes after mixing the solution with human blood. This means that the measured osmolality of the solution is equal to that of human blood plasma (approx. 290 mOsmol/kg water). This is the goal for any parenteral drug formulation, being more important if injection volumes are relatively large (typically >10 ml) and if injection rate is fast.
Ioforminol 320 mg I/ml injection contains […]. With a molar weight of 1522,13 Dalton, this would be 420.3 mM. This concentrated solution contains 699 g water per litre. Density is 1.357 kg/litre, thus the weight of one litre Ioforminol 320 mg I/ml injection is 1.357 kg. Water is therefore only about half of the weight. Theoretical estimation of osmolality would be 601.5 mOsmol/kg water given 420.3 mM ioforminol, no dissociation under dissolution and 699 g water as solvent.
Knowing that blood plasma osmolality is approx. 290 mOsmol/kg water, such a solution would be hypertonic by a factor 2 even without other components/solutes. Yet measured osmolality of the complete formulation of ioforminol 320 mg I/ml was around 290 mOsmol/kg water. When one subtracts the contribution to osmolality of the other components in the formulation (Tris, EDTA, NaCl and CaCl2), the net contribution of ioforminol was around 129 mOsmol/kg, not around 600 mOsmol/kg. This is approximately 22% of the expected theoretical osmolality if every ioforminol molecule would act as one hydrated particle.
This can be attributed to the very high concentration of ioforminol in the 320 mg I/ml solution. […] However, the percentage only increases to approximately 36% when the concentrated ioforminol composition was diluted more than fourfold. The result of this phenomenon is the linear correlation between ioforminol concentration, salt concentration and osmolality in the interval 70-330 mg I/ml Ioforminol.

## O=CN(CC(O)CN(C=O)c1c(I)c(C(=O)NCC(O)CO)c(I)c(C(=O)NCC(O)CO)c1I)c1c(I)c(C(=O)NCC(O)CO)c(I)c(C(=O)NCC(O)CO)c1I (centres unmarked) [ioforminol, 5-[formyl-[3-[formyl-[3,5-bis(2,3-dihydroxypropylcarbamoyl)-2,4,6-triiodophenyl]amino]-2-hydroxypropyl]amino]-N,N′-bis(2,3-dihydroxypropyl)-2,4,6-triiodobenzene-1,3-dicarboxamide]
320 mg I/ml, contribution of Tris, EDTA, NaCl and CaCl2 subtracted
  net contribution of ioforminol to osmolality: around 129 mOsmol/kg
320 mg I/ml, theoretical = every ioforminol molecule acts as one hydrated particle
  percentage of the expected theoretical osmolality: approximately 22%
121° C. for approximately 15 minutes
  percentage contribution to osmolality after autoclaving: does not change
After more than fourfold dilution from 320 to 70 mg I/ml
  percentage of the expected theoretical osmolality: approximately 36%
Aqueous solution, theoretical = one molecule acts as one hydrated particle
  osmolality compared to theoretical value: lower

Reference: patent US20160279269A1, “METHOD AND REAGENT FOR PREPARING A DIAGNOSTIC COMPOSITION” (GE HEALTHCARE AS, priority 2013, published 2016)
